{
  "source": "patent EP2837390A1",
  "about": "“Combined Pharmaceutical Preparation for Use in Treating Neuromuscular Disorders” (Universitäts-Kinderspital beider Basel, priority 2013, dated 2015)",
  "origin": "cited, not measured here",
  "test_system": "mdx mice model",
  "settings": "long term supplementation for 17-months",
  "data": [
    {"smiles": "N=C(N)NCCC[C@H](N)C(=O)O", "note": "[L-arginine]", "values": [
      {"measurement": "muscle fibrosis", "result": "increased"},
      {"measurement": "muscle function", "result": "worsened"},
      {"measurement": "skeletal deformities", "result": "increased"}
    ]}
  ]
}
